Laboratory results published in PubChem BioAssay AID504678 (The Scripps Research Institute Molecular Screening Center, 2011).
Active and inactive are the calls of the source.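 Rule for the calls: active = compound whose IC50 against bacterial viability is at or below 10 µM; inactive = IC50 above 10 µM.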

Tested on: E. coli V3065 growth, OD600 absorbance
Assay: E. coli V3065 growth inhibition, dose response, counter-screen for AddAB recombination inhibitor project, absorbance, OD600 (AID 504678)

## Cc1cccnc1NC(=O)c1ccc([N+](=O)[O-])o1
  IC50: 39.5 µM (inactive)

## CCn1cc(C(=O)O)c(=O)c2cnc(N3CCN(C(=S)Nc4ccccc4C(F)(F)F)CC3)nc21
  IC50: > 39.5 µM (inactive)

## O=C(OCC(=O)c1cccs1)c1ccc([N+](=O)[O-])o1
  IC50: > 119 µM (inactive)

## O=C(Nc1ccc(N2CCOCC2)cc1)c1ccc([N+](=O)[O-])o1
  IC50: 17.3 µM (inactive)

## N#Cc1c(NC(=O)c2ccc([N+](=O)[O-])o2)sc2c1CCC2
  IC50: > 119 µM (inactive)

## Cc1ccc2nc(/C(C#N)=C\c3ccc([N+](=O)[O-])o3)[nH]c2c1
  IC50: > 119 µM (inactive)

## CC(=O)Nc1ccc2nc(NC(=O)c3ccc([N+](=O)[O-])o3)sc2c1
  IC50: > 119 µM (inactive)

## O=C(NCc1cccnc1)c1ccc([N+](=O)[O-])o1
  IC50: > 39.5 µM (inactive)

## C=CCn1c(Sc2ncc([N+](=O)[O-])s2)n[nH]c1=O
  IC50: 20.4 µM (inactive)

## O=C(Nc1cccc(NC(=O)c2ccccc2Cl)c1)c1ccc([N+](=O)[O-])o1
  IC50: > 119 µM (inactive)

## O=C(Nc1ncccn1)c1ccc([N+](=O)[O-])o1
  IC50: 33 µM (inactive)

## NC(=O)c1ccsc1NC(=O)COC(=O)c1ccc([N+](=O)[O-])o1
  IC50: > 119 µM (inactive)
